Assay: Henry solubility constant Hcp at 313 K (mol/(m3 Pa))
Settings: reference: Du et al. (2017)

Henry solubility constant Hcp at 313 K | SMILES
810 | Cc1ncc[nH]1 [2-methyl-1H-imidazole]
1300 | CN1CCC(O)CC1 [4-hydroxy-N-methylpiperidine]
710 | CCC(N)(CO)CO [2-amino-2-ethyl-1,3-propanediol]
69 | Cn1ccnc1 [1-methyl-1H-imidazole]
670 | CN(C)CC(O)CO (stereo not given) [3-(dimethylamino)-1,2-propanediol]
43 | Cc1nccn1C [1,2-dimethylimidazole]
210 | CC(C)(N)CO [2-amino-2-methyl-1-propanol]
390 | OCCC1CCCCN1 (stereo not given) [2-piperidineethanol]
110 | COCCNCCOC [bis(2-methoxyethyl)amine]
110 | CC(C)NCCO [2-(isopropylamino)ethanol]
760 | CCc1ncc[nH]1 [2-ethylimidazole]
21 | COCCCN [3-methoxy-1-propanamine]
540 | CCN(CC)CC(O)CO (stereo not given) [3-(diethylamino)-1,2-propanediol]
51 | OCCN1CCCCC1 [1-(2-hydroxyethyl)piperidine]
280 | CCc1ncc(C)[nH]1 [2-ethyl-4-methylimidazole]
830 | CN(C)CCOCCO [dimethylaminoethoxyethanol]

SMILES | Henry solubility constant Hcp at 313 K
NCc1cccnc1 [3-(aminomethyl)pyridine] | 430
CN(CCO)CCO [N-methyldiethanolamine] | 3300
CN1C2CCC1CC(O)C2 (stereo not given) [tropine] | 1300
CCN(CC)CCO [2-(diethylamino)ethanol] | 5.9

— Sander's compilation of Henry's law constants (doi:10.1016/j.ijggc.2017.01.001)
